Test results: patent publication US20060116390A1, “Hepatitis c virus inhibitors” (priority 2003, published 2006)
pIC50: −log10 of the molar value. Read-outs that look alike come from different tables or passages of the source.

System: HCV proteins in Rep5.1 cells (replicon cell line)
Test: Inhibitory activity of HCV: cell-based ELISA in replicon cell line Rep5.1 (decrease of HCV proteins)
Set-up: species or system hepatitis C virus
Method in brief: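 HCV protein loss was quantified by ELISA on methanol/acetone-fixed cells 72 h after drug addition, probing with selected HCV-positive human plasma, and IC50 was defined as 50% reduction relative to untreated wells. The cells were Rep5.1 replicon cells cultured in DMEM-10 with 500 μg/ml G418, plated at 5000 per well and dosed with serial dilutions after 4 h attachment.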

[1] = Hepatitis C virus, 72 h, Rep5.1 cells, 72 hours with drug, concentration at which 50% of HCV proteins was decreased, Table 2, read-out: IC50
[2] = Hepatitis C virus, 72 h, Rep5.1 cells, 72 hours with drug, decrease of HCV proteins measured by HCV antibody, Table 1, read-out: Level (IC50 values classified)

## CC1=C(C(=O)OCCc2cccc(Cl)c2)C(COC(=O)OCc2oc(=O)oc2C)NC(=S)N1 (stereo not shown) [78″, 6-methyl-4-(5-methyl-2-oxo-[1,3]dioxol-4-ylmethoxycarbonyloxymethyl)-2-thioxo-1,2,3,4-tetrahydro-pyrimidine-5-carboxylic acid 2-(3-chloro-phenyl)-ethyl ester]
[1]
  pIC50: 6.10
[2]
  pIC50: > 6.00

## COc1ccc(COC(=O)C2=C(C)NC(=S)NC2)cc1Br [Compound 141, 6-methyl-2-thioxo-1,2,3,4-tetrahydro-pyrimidine-5-carboxylic acid 3-bromo-4-methoxy-benzyl ester]
[1]
  pIC50: 6.15
[2]
  pIC50: > 6.00

## CC1=C(C(=O)OCCc2ccc(N(C)C)cc2)C(CO)NC(=S)N1 (stereo not shown) [12″, 4-hydroxymethyl-6-methyl-2-thioxo-1,2,3,4-tetrahydro-pyrimidine-5-carboxylic acid 2-(4-dimethylamino-phenyl)-ethyl ester]
[1]
  pIC50: 4.51
[2]
  pIC50: < 4.70

## CC1=C(C(=O)OCC2CC3CCC2C3)CNC(=S)N1 (stereo not shown) [Compound 151, 6-methyl-2-thioxo-1,2,3,4-tetrahydro-pyrimidine-5-carboxylic acid bicyclo[2.2.1]hept-2-ylmethyl ester]
Hepatitis C virus, 72 h
  pIC50: > 6.40
Hepatitis C virus, 72 h, read-out: Level (IC50 values classified)
  pIC50: > 6.00

## CC1=C(C(=O)OCc2ccc(C)s2)CNC(=S)N1 [Compound 232, 6-methyl-2-thioxo-1,2,3,4-tetrahydro-pyrimidine-5-carboxylic acid 5-methyl-thiophen-2-ylmethyl ester]
[1]
  pIC50: 4.70
[2]
  pIC50: 4.70 to 5.00

## CC1=C(C(=O)OCCc2c(F)cc(F)cc2F)C(CO)NC(=S)N1 (stereo not shown) [53″, 4-hydroxymethyl-6-methyl-2-thioxo-1,2,3,4-tetrahydro-pyrimidine-5-carboxylic acid 2-(2,4,6-trifluoro-phenyl)-ethyl ester]
[1]
  pIC50: 5.15
[2]
  pIC50: 5.00 to 6.00

## CC1=C(C(=O)OCCc2ccsc2)C2(CCC2)NC(=S)N1 [7′, 8-methyl-6-thioxo-5,7-diaza-spiro[3,5]non-8-en-9-carboxylic acid 2-thiophen-3-yl-ethyl ester]
[1]
  pIC50: 5.10
[2]
  pIC50: 5.00 to 6.00

## CC1=C(C(=O)OCc2scc(C)c2Cl)C(CF)NC(=S)N1 (stereo not shown) [15′, 4-fluoromethyl-6-methyl-2-thioxo-1,2,3,4-tetrahydro-pyrimidine-5-carboxylic acid 3-chloro-4-methyl-thiophen-2-ylmethyl ester]
[1]
  pIC50: 6.00
[2]
  pIC50: > 6.00

## CC1=C(C(=O)OCc2cccc(Cl)c2)CNC(=S)N1 [Compound 91, 6-methyl-2-thioxo-1,2,3,4-tetrahydro-pyrimidine-5-carboxylic acid 3-chloro-benzyl ester]
[1]
  pIC50: > 6.40
[2]
  pIC50: > 6.00

## COCCN(C)c1ccc(CCOC(=O)C2=C(C)NC(=S)NC2)cc1 [Compound 209, 6-methyl-2-thioxo-1,2,3,4-tetrahydro-pyrimidine-5-carboxylic acid 2-{4-[(2-methoxy-ethyl)-methyl-amino]-phenyl}-ethyl ester]
[1]
  pIC50: > 6.40
[2]
  pIC50: > 6.00

## CC1=C(C(=O)OCCC2CCCC2)C(CO)NC(=S)N1 (stereo not shown) [36″, 4-hydroxymethyl-6-methyl-2-thioxo-1,2,3,4-tetrahydro-pyrimidine-5-carboxylic acid 2-cyclopentyl-ethyl ester]
[1]
  pIC50: 5.52
[2]
  pIC50: 5.00 to 6.00

## CC1=C(C(=O)OCCCc2ccsc2F)C(CF)NC(=S)N1 (stereo not shown) [52′, 4-fluoromethyl-6-methyl-2-thioxo-1,2,3,4-tetrahydro-pyrimidine-5-carboxylic acid 3-(2-fluoro-thiophen-3-yl)-propyl ester]
[1]
  pIC50: 4.66
[2]
  pIC50: < 4.70

## CC1=C(C(=O)OCCc2cn(C)c3ccccc23)CNC(=S)N1 [Compound 165, 6-methyl-2-thioxo-1,2,3,4-tetrahydro-pyrimidine-5-carboxylic acid 2-(1-methyl-1H-indol-3-yl)-ethyl ester]
[1]
  pIC50: 5.85
[2]
  pIC50: 5.00 to 6.00

## O=C(OCc1ccccc1)C1=CNC(=S)NC1 [Compound 44, 2-thioxo-1,2,3,4-tetrahydro-pyrimidine-5-carboxylic acid benzyl ester]
[1]
  pIC50: 5.52
[2]
  pIC50: 5.00 to 6.00

## CC1=C(C(=O)OCCOCCc2ccsc2)CNC(=S)N1 [54′, 6-methyl-2-thioxo-1,2,3,4-tetrahydro-pyrimidine-5-carboxylic acid 2-(2-thiophen-3-yl-ethoxy)-ethyl ester]
[1]
  pIC50: 5.30
[2]
  pIC50: 5.00 to 6.00

## CC1=C(C(=O)OCCc2cccc([N+](=O)[O-])c2)C(CO)NC(=S)N1 (stereo not shown) [32″, 4-hydroxymethyl-6-methyl-2-thioxo-1,2,3,4-tetrahydro-pyrimidine-5-carboxylic acid 2-(3-nitro-phenyl)-ethyl ester]
[1]
  pIC50: 5.22
[2]
  pIC50: 5.00 to 6.00

## COC(=O)c1ccc(COC(=O)C2=C(C)NC(=S)NC2)cc1 [Compound 11, 6-methyl-2-thioxo-1,2,3,4-tetrahydro-pyrimidine-5-carboxylic acid 4-methoxycarbonyl-benzyl ester]
[1]
  pIC50: < 4.00
[2]
  pIC50: < 4.70

## CCCOCC#CCOC(=O)C1=C(C)NC(=S)NC1 [Compound 237, 6-methyl-2-thioxo-1,2,3,4-tetrahydro-pyrimidine-5-carboxylic acid 4-propoxy-but-2-inyl ester]
Rep5.1 cells, 72 hours with drug, concentration at which 50% of HCV proteins was decreased, Table 2, read-out: IC50
  pIC50: 5.77

## CC1=C(C(=O)OCCc2ccc(N3CCCC3)c([N+](=O)[O-])c2)C(CO)NC(=S)N1 (stereo not shown) [99″, 4-Hydroxymethyl-6-methyl-2-thioxo-1,2,3,4-tetrahydro-pyrimidine-5-carboxylic acid 2-(3-nitro-4-pyrrolidin-1-yl-phenyl)-ethyl ester]
[1]
  pIC50: 6.00
[2]
  pIC50: > 6.00

## CC1=C(C(=O)OCc2cccc(C(F)(F)F)c2)C(CO)NC(=S)N1 (stereo not shown) [51″, 4-hydroxymethyl-6-methyl-2-thioxo-1,2,3,4-tetrahydro-pyrimidine-5-carboxylic acid 3-trifluoromethyl-benzyl ester]
[1]
  pIC50: 5.64
[2]
  pIC50: 5.00 to 6.00

## CC1=C(C(=O)OCCCc2ccsc2F)C(CO)NC(=S)N1 (stereo not shown) [13″, 4-hydroxymethyl-6-methyl-2-thioxo-1,2,3,4-tetrahydro-pyrimidine-5-carboxylic acid 3-(2-fluoro-thiophen-3-yl)-propyl ester]
[1]
  pIC50: 5.28
[2]
  pIC50: 5.00 to 6.00

## CC1=C(C(=O)SCCc2ccccc2)C(CF)NC(=S)N1 (stereo not shown) [88′, 4-fluoromethyl-6-methyl-2-thioxo-1,2,3,4-tetrahydro-pyrimidine-5-carbothioic acid S-phenethyl ester]
[1]
  pIC50: 6.40
[2]
  pIC50: > 6.00

## CC1=C(C(=O)OCc2cc(F)cc(F)c2)C(CO)NC(=S)N1 (stereo not shown) [71″, 4-hydroxymethyl-6-methyl-2-thioxo-1,2,3,4-tetrahydro-pyrimidine-5-carboxylic acid 3,5-difluoro-benzyl ester]
[1]
  pIC50: < 4.00
[2]
  pIC50: < 4.70

## CC1=C(C(=O)OCCc2ccc(N3CCCCC3)c([N+](=O)[O-])c2)C(CO)NC(=S)N1 (stereo not shown) [100″, 4-Hydroxymethyl-6-methyl-2-thioxo-1,2,3,4-tetrahydro-pyrimidine-5-carboxylic acid 2-(3-nitro-4-piperidin-1-yl-phenyl)-ethyl ester]
[1]
  pIC50: 6.05
[2]
  pIC50: > 6.00

## CC1=C(C(=O)OCCc2ccc(F)cc2Cl)C(CO)NC(=S)N1 (stereo not shown) [58″, 4-hydroxymethyl-6-methyl-2-thioxo-1,2,3,4-tetrahydro-pyrimidine-5-carboxylic acid 2-(2-chloro-4-fluoro-phenyl)-ethyl ester]
[1]
  pIC50: 5.74
[2]
  pIC50: 5.00 to 6.00

## CC1=C(C(=O)OCCC2CCc3ccccc32)CNC(=S)N1 (stereo not shown) [Compound 126, 6-methyl-2-thioxo-1,2,3,4-tetrahydro-pyrimidine-5-carboxylic acid 2-indan-1-yl-ethyl ester]
[1]
  pIC50: > 6.40
[2]
  pIC50: > 6.00

## C=C(Cl)COC(=O)C1=C(C)NC(=S)NC1 [Compound 98, 6-methyl-2-thioxo-1,2,3,4-tetrahydro-pyrimidine-5-carboxylic acid 2-chloro-allyl ester]
[1]
  pIC50: 5.15
[2]
  pIC50: 5.00 to 6.00

## CC1=C(C(=O)OCc2cccc(C#N)c2)CNC(=S)N1 [Compound 48, 6-methyl-2-thioxo-1,2,3,4-tetrahydro-pyrimidine-5-carboxylic acid 3-cyano-benzyl ester]
[1]
  pIC50: 4.52
[2]
  pIC50: 4.70 to 5.00

## CC1=C(C(=O)OCc2cc3ccsc3s2)CNC(=S)N1 [Compound 235, 6-methyl-2-thioxo-1,2,3,4-tetrahydro-pyrimidine-5-carboxylic acid thieno[2,3-b]thiophen-2-ylmethyl ester]
[1]
  pIC50: 6.05
[2]
  pIC50: > 6.00

## CC1=C(C(=O)OCCc2cccc([N+](=O)[O-])c2)CNC(=S)N1 [14′, 6-methyl-2-thioxo-1,2,3,4-tetrahydro-pyrimidine-5-carboxylic acid 2-(3-nitro-phenyl)-ethyl ester]
[1]
  pIC50: 6.15
[2]
  pIC50: > 6.00

## CC1=C(C(=O)OC2CCCCC2)CNC(=S)N1 [Compound 37, 6-methyl-2-thioxo-1,2,3,4-tetrahydro-pyrimidine-5-carboxylic acid cyclohexyl ester]
[1]
  pIC50: 5.40
[2]
  pIC50: 5.00 to 6.00

## CC1=C(C(=O)OCCc2cccc(Cl)c2)C(CO)NC(=S)N1 (stereo not shown) [31″, 4-hydroxymethyl-6-methyl-2-thioxo-1,2,3,4-tetrahydro-pyrimidine-5-carboxylic acid 2-(3-chloro-phenyl)-ethyl ester]
[1]
  pIC50: 6.00
[2]
  pIC50: > 6.00

## CC1=C(C(=O)OCc2cc(F)cc(F)c2)CNC(=S)N1 [Compound 134, 6-methyl-2-thioxo-1,2,3,4-tetrahydro-pyrimidine-5-carboxylic acid 3,5-difluoro-benzyl ester]
[1]
  pIC50: 6.22
[2]
  pIC50: > 6.00

## CC1=C(C(=O)OCCc2ccccc2)C(CF)NC(=S)N1 (stereo not shown) [33′, 4-fluoromethyl-6-methyl-2-thioxo-1,2,3,4-tetrahydro-pyrimidine-5-carboxylic acid phenethyl ester]
[1]
  pIC50: 6.00
[2]
  pIC50: > 6.00
